# Measurements as given in patent US4490388A, “Amidine compound and anticomplement agent comprising same” (Torii & Co., Ltd., priority 1981, dated 1984).
# Assays:
# [1] = biological target: T1, C1r (Homo sapiens, UniProt P00736); assay: Anti-C1 esterase activity, C1r (hydrolysis of AAME); type: biochemical; details: molar concentration inhibiting 50% of AAME hydrolysis; read-out: Anti-C1 activity, C1r id50
# T1 sequence (P00736 464-705 limits assumed): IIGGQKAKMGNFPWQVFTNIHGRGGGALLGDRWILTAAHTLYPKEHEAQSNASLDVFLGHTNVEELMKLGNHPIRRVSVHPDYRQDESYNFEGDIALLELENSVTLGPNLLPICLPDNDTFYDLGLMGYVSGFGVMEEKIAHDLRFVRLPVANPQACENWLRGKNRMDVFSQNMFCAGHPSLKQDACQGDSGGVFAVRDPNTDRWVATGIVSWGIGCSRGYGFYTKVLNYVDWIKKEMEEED
# T1 sequence (P00736 18-463 partner limits assumed): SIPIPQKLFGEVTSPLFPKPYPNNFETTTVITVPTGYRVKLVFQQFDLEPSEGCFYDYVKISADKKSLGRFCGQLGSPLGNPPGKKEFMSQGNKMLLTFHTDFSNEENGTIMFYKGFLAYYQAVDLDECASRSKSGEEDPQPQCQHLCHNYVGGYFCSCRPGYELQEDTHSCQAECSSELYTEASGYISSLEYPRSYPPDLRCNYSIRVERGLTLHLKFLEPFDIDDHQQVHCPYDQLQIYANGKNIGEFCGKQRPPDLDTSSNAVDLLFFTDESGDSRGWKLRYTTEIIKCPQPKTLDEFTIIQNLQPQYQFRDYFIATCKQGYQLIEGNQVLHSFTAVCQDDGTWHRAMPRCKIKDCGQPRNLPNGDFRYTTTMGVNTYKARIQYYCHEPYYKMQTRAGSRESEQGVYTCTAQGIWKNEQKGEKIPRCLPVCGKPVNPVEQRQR
# Description: The anti-C1 esterase (C1r, C1s) activity was determined according to the method of Okamura et al. [K. Okamura, M. Muramatsu and B. Fujii, Biochem. Biophys. […] The figures in Table 2 have the following meanings:
# C1r: Molar concentration of the test compound which inhibits 50% of the ability of C1r to hydrolyse AAME (acetylarginin methyl ester) (id50).
# [2] = biological target: T2, C1s (Homo sapiens, UniProt P09871); assay: Anti-C1 esterase activity, C1s (hydrolysis of ATEE); type: biochemical
# T2 sequence (P09871 438-688 limits assumed): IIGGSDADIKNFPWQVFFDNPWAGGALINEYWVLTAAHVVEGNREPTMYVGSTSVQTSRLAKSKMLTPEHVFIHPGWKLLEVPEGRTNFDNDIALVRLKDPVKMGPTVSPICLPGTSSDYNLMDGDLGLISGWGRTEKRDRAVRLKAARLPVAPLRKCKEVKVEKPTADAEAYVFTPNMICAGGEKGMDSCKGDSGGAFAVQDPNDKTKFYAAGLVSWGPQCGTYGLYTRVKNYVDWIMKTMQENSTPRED
# T2 sequence (P09871 16-437 partner limits assumed): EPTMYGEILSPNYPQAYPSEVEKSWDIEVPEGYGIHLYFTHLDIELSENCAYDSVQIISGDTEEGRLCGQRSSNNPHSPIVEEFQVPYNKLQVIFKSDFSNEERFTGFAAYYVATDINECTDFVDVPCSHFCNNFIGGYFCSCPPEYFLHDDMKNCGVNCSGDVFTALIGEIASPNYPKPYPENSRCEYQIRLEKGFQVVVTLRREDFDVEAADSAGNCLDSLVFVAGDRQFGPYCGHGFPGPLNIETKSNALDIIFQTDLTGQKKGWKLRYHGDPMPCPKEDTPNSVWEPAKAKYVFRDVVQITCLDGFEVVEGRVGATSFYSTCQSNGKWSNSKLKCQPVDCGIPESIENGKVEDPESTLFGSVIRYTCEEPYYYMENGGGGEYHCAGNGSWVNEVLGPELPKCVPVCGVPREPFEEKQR
# Description: The anti-C1 esterase (C1r, C1s) activity was determined according to the method of Okamura et al. [K. Okamura, M. Muramatsu and B. Fujii, Biochem. Biophys. Acta, 295, 252-257 (1973)]. The inhibition of complement mediated hemolysis was determined according to the method of Baker et al. [B. R. Baker and E. H. Erickson, J. Med. Chem., 12, 408-414 (1969)]. The figures in Table 2 have the following meanings:
# C1s: Molar concentration of the test compound which inhibits 50% of the ability of C1s to hydrolyse ATEE (acetyltyrosin ethyl ester).
# [3] = system: complement; assay: Inhibition of complement mediated hemolysis; type: cell-based; details: read-out: Inhibition of complement mediated hemolysis (%)
# Description: The complement mediated hemolysis is widely used as a means to determine the titration of complement. The principle of this method is based on the fact that hemolysis is caused by the activation of complement, when the latter is added to a complex (immune complex) of erythrocytes and the autibody thereof. The degree of hemolysis varies in proportion to the amount of complement added. Therefore, when a known amount of complement admixed with a C1 esterase inhibitor is used, the hemolysis must be suppressed in proportion to the inhibitory activity.
# The anti-C1 esterase (C1r, C1s) activity was determined according to the method of Okamura et al. [K. Okamura, M. Muramatsu and B. Fujii, Biochem. Biophys. […] The inhibition of complement mediated hemolysis was determined according to the method of Baker et al. [B. R. Baker and E. H. Erickson, J. Med. Chem., 12, 408-414 (1969)].
# [4] = system: complement; details: Y. Takada et al., Immunology 34, 509-515 (1978); cited from earlier work
structure (smiles),measurement,setting,value
"CC(=O)N[C@@H](CC(C)C)C(=O)N[C@@H](CC(C)C)C(=O)N[C@H](C=O)CCCNC(=N)N [Leupeptin, reference compound]",IC50,[1],200 µM
same,IC50,[2],20 µM
same,inhibition at 0.1 µM,[3],0%
same,inhibition at 1 µM,[3],0%
same,inhibition at 10 µM,[3],52%
same,inhibition at 100 µM,[3],97%
same,anti-complement activity (in words),[4],anti-complement activity
